Peptide text beside a SMILES is read from it.

Results on 8 molecules are retold here after patent publication US9067972B2, “Skin aging-inhibiting peptide” (CALPIS CO., LTD., priority 2008, dated 2015).

The subject of this series is Caco-2 cells.
Experimental: Caco-2 cells were obtained from the American Type Culture Collection. Cells with a passage number of 40 to 70 were used for the permeation test. The culture medium comprised Dulbecco's modified Eagle's medium (Sigma) supplemented with fetal bovine serum (10%, AGC TECHNO GLASS CO., LTD.), a non-essential amino acid solution (1%, Gibco), and penicillin-streptomycin (each 200 IU/ml, 200 μg/ml, Gibco). The Caco-2 cells were cultured under humidified conditions at 37° C. and 5% CO2, and subcultured for every 4 to 5 days. For the permeation test, the cells were cultured on a membrane filter in a 12-transwell (Millipore). To a basal side 1.5 ml of the culture medium was added and 0.5 ml of culture medium was added to an apical side, and the cells were cultured for approximately 2 weeks. The enzymatic hydrolysate of the fermented milk was added to the apical side of the cultured Caco-2 cells. Peptides which were permeated to the basal side were collected. For comparison, the same test was performed on a digestive tract enzyme-degraded product of non-fermented reconstituted skimmed milk with a reconstitution ratio of 8.9%.
The peptides which were permeated to the basal solution were subjected to solid phase extraction (SepPak tC18, Waters) to thereby concentrate the peptide component and then the peptides were determine by using a high-performance liquid chromatograph tandem mass spectrometer (LCMS-IT-TOF, Shimadzu Corporation). PEAKS (Bioinformatics Solutions Inc) was used to analyze the data. Based on the information obtained from MS/MS, de novo sequencing was performed to determine the amino acid sequence of the permeated peptides. Comparison was made between the detected peptides and peptides contained in a digestive tract enzyme-hydrolyzed product of a milk protein.
Take `CC(C)[C@H](N)C(=O)N1CCC[C@H]1C(=O)N1CCC[C@H]1C(=O)O` [Val-Pro-Pro]: the “Permeation through Caco-2 monolayer (apical to basal side)” value (“Permeation through Caco-2 monolayer” for short) was “permeable”.
Consider `CC(C)[C@H](NC(=O)[C@@H]1CCCN1)C(=O)N[C@H](C(=O)N[C@H](C(=O)N1CCC[C@H]1C(=O)N1CCC[C@H]1C(=O)O)C(C)C)C(C)C` [Pro-Val-Val-Val-Pro-Pro] (H-PVVVPP-OH; N-terminus and C-terminus assumed), for which the “Permeation through Caco-2 monolayer” value is “permeable”.
Regarding `CC(C)C[C@H](N)C(=O)N1CCC[C@H]1C(=O)N1CCC[C@H]1C(=O)N[C@H](C(=O)O)[C@@H](C)O` [Leu-Pro-Pro-Thr] (H-LPPT-OH; N-terminus and C-terminus assumed), the “Permeation through Caco-2 monolayer” value was “permeable”.
For the molecule `CC[C@H](C)[C@H](N)C(=O)N1CCC[C@H]1C(=O)N1CCC[C@H]1C(=O)O` [Ile-Pro-Pro], the “Permeation through Caco-2 monolayer” value was “permeable”.
Regarding `NC(=O)CC[C@H](NC(=O)[C@@H]1CCCN1C(=O)[C@@H]1CCCN1C(=O)[C@@H](N)Cc1ccccc1)C(=O)O` [Phe-Pro-Pro-Gln] (H-FPPQ-OH; N-terminus and C-terminus assumed), the “Permeation through Caco-2 monolayer” value is listed as “permeable”.
Turning to `CC(C)[C@H](N)C(=O)N1CCC[C@H]1C(=O)N1CCC[C@H]1C(=O)N[C@@H](Cc1ccccc1)C(=O)O` [Val-Pro-Pro-Phe] (H-VPPF-OH; N-terminus and C-terminus assumed), the “Permeation through Caco-2 monolayer” value is recorded as “permeable”.
The entry for `CC[C@H](C)[C@H](N)C(=O)N1CCC[C@H]1C(=O)N1CCC[C@H]1C(=O)N[C@@H](CC(C)C)C(=O)O` [Ile-Pro-Pro-Leu] (H-IPPL-OH; N-terminus and C-terminus assumed) is “permeable”; for `CC[C@H](C)[C@H](NC(=O)[C@@H](N)CC(N)=O)C(=O)N1CCC[C@H]1C(=O)N1CCC[C@H]1C(=O)N[C@@H](CC(C)C)C(=O)O` [Asn-Ile-Pro-Pro-Leu] (H-NIPPL-OH; N-terminus and C-terminus assumed) it is “permeable”.
